{"source": "patent US6683201B2", "about": "“Analine derivatives as OSC inhibitors” (Hoffmann-La Roche Inc., priority 2000, dated 2004)"}
{"smiles": "CN(C)CCCCOc1ccc(N(C)S(=O)(=O)c2ccc(C(F)(F)F)cc2)cc1", "note": "[Example 14.1, N-[4-(4-Dimethylamino-butoxy)-phenyl]-N-methyl-4-trifluoromethyl-benzenesulfonamide]", "values": [{"measurement": "melting point", "value": "151 to 153", "unit": "°C"}]}
